The results in this text go back to EP4610269A1, “UROKINASE PLASMINOGEN ACTIVATOR SURFACE RECEPTOR (UPAR) LIGANDS FOR DIAGNOSTIC OR THERAPEUTIC USE” (3B Pharmaceuticals GmbH, priority 2024, dated 2025).

Where a SMILES comes first, the peptide text is derived from it. Bridges are numbered along the chain shown (N, C = ends). [ ]: non-standard residue; d: D form. The star is where a group is joined. DOTA = O=C(O)CN1CCN(CC(=O)O)CCN(CC(=O)*)CCN(CC(=O)O)CC1; X5 = O=C(O)CN1CCN(CC(=O)O)CCN([C@H](CCC(=O)*)C(=O)O)CC1; Pro(cis-4-F) = O=C(O)[C@@H]1C[C@H](F)CN1; Phe(2-Cl) = N[C@@H](Cc1ccccc1Cl)C(=O)O; Dopa = N[C@@H](Cc1ccc(O)c(O)c1)C(=O)O; Hyp = O=C(O)[C@@H]1C[C@@H](O)CN1; Gly(cBu) = N[C@H](C(=O)O)C1CCC1; Pentanoyl(4-Me) = CC(C)CCC(=O)*; Cit = NC(=O)NCCC[C@H](N)C(=O)O; Butoxycarbonyl = CCCCOC(=O)*; Nle = CCCC[C@H](N)C(=O)O; Aze = O=C(O)[C@@H]1CCN1; Nva = CCC[C@H](N)C(=O)O; Abu = CC[C@H](N)C(=O)O; Pentanoyl = CCCCC(=O)*; AEEA = NCCOCCOCC(=O)O; Aib = CC(C)(N)C(=O)O

Assay [1] concerns the target T1, uPAR-expressing HEC-265 human endometrial adenocarcinoma cells (Homo sapiens, UniProt Q03405).
T1 construct: Cell surface uPAR-expressing HEC-265 human endometrial adenocarcinoma cells; host or cells: HEC-265
As to the kind of experiment: Competitive FACS binding assay. The conditions noted are these: pIC50 category of FACS binding. A digest of the protocol: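 Competitive displacement of a 10 nM biotinylated peptide from HEC-265 cells (1 h, 4 °C, PBS/1% BSA), detected via APC-streptavidin by flow cytometry. pIC50 from four-parameter logistic fit of median fluorescence versus concentration.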
Background: A flow cytometer gives signals particle by particle.

The target in the next assay is T2, human uPAR (uPAR-Fc) (Homo sapiens, UniProt Q03405).
T2 construct: comprising amino acids Leu23-Arg303 according to UniProt entry Q03405.1; purchased R&D Systems 10378-UK-100
T2 sequence (Q03405 23-303): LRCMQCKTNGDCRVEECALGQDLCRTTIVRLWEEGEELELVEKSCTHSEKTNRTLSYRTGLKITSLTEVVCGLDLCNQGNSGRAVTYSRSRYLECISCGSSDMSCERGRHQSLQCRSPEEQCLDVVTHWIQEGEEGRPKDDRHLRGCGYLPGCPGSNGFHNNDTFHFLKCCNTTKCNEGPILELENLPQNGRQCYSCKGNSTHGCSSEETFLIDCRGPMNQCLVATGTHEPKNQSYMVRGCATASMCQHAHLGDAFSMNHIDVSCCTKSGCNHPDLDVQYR
As to the kind of experiment: Surface plasmon resonance (SPR) assay, single cycle kinetics. As to conditions: pKD category for uPAR SPR activity assay; uPAR-Fc on Protein A-Chip, single cycle kinetics, 25°C; read-out: pKD CAT (converted). The class given is binding. The method in brief:
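uPAR-Fc (Leu23-Arg303 extracellular domains, human IgG1 Fc) captured on Protein A chip to ~2000 RU; single-cycle kinetics at 25°C in HEPES running buffer pH 7.4 with 0.1% DMSO. KD from double-referenced sensorgrams fitted to 1:1 Langmuir model, reported as pKD.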
For orientation: Surface plasmon resonance follows binding to a sensor surface in real time, without labels.

T1 sequence (Q03405 23-335): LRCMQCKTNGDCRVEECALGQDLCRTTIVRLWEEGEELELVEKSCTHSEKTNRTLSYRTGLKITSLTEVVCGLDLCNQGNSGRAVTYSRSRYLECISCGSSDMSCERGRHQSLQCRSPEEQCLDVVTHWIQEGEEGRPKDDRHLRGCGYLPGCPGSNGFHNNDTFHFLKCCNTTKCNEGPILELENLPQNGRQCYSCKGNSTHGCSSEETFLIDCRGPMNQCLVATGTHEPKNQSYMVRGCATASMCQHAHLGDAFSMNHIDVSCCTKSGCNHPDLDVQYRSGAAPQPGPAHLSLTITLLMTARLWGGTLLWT

In assay [1], `CCCC[C@@H]1NC(=O)[C@H](CCCNC(=N)N)NC(=O)[C@@H](NC(=O)[C@H](CC(C)C)NC(=O)[C@H](CC(=O)O)NC(C)=O)CSSC[C@@H](C(N)=O)NC(=O)[C@H](CC(C)C)NC(=O)[C@H]([C@@H](C)CC)NC(=O)C(C)(C)NC(=O)[C@@H]2CCCN2C(=O)[C@H](Cc2ccccc2)NC(=O)[C@H](Cc2ccc(O)cc2)NC1=O` [UPAR-440, Ac-Asp-Leu-[Cys-Arg-Nle-Tyr-Phe-Pro-Aib-Ile-Leu-Cys]-NH2] (Ac-DLCR[Nle]YFP[Aib]ILC-NH2; disulfide 3-12) showed an IC50 of at most 10 nM. Also, the Kd at human uPAR (uPAR-Fc) is under 1.58 nM.

In turn, `CCCCC(=O)N[C@H]1CSSC[C@@H](C(N)=O)NC(=O)[C@H](CCC)NC(=O)[C@H]([C@@H](C)CC)NC(=O)[C@@H]2C[C@@H](O)CN2C(=O)[C@@H]2CCCN2C(=O)[C@H](Cc2ccccc2)NC(=O)[C@H](CCCCN)NC(=O)[C@H](CCC(N)=O)NC(=O)[C@H](CCCNC(=N)N)NC1=O` [UPAR-442, Pent-[Cys-Arg-Gln-Lys-Phe-Pro-Hyp-Ile-Nva-Cys]-NH2] (Pentanoyl-CRQKFP[Hyp]I[Nva]C-NH2; disulfide 1-10) gave an IC50 in assay [1] of 39.8 to 100 nM. Besides, the Kd on human uPAR (uPAR-Fc) was 10 to 100 nM.

`CCCCOC(=O)N[C@H]1CSSC[C@@H](C(N)=O)NC(=O)[C@H](CCC)NC(=O)[C@H]([C@@H](C)CC)NC(=O)[C@@H]2C[C@@H](O)CN2C(=O)[C@@H]2C[C@H](F)CN2C(=O)[C@H](Cc2ccccc2)NC(=O)[C@H](Cc2ccc(O)c(O)c2)NC(=O)[C@H](CCCCNC(=O)CC[C@H](C(=O)O)N2CCN(CC(=O)O)CCN(CC(=O)O)CC2)NC(=O)[C@H]([C@@H](C)O)NC1=O` [UPAR-444, Butoc-[Cys-Thr-Lys(NODAGA)-Dopa-Phe-4Cfp-Hyp-Ile-Nva-Cys]-NH2] (Butoxycarbonyl-CTK(X5)[Dopa]F[Pro(cis-4-F)][Hyp]I[Nva]C-NH2; disulfide 1-10) gave a 50% inhibitory concentration (IC50) in assay [1] of at most 10 nM. Further, the Kd on human uPAR (uPAR-Fc) is under 1.58 nM.

In assay [1], `CC[C@H](C)[C@@H]1NC(=O)[C@@H](C)NC(=O)[C@@H]2CCCN2C(=O)[C@H](Cc2ccccc2)NC(=O)[C@H](Cc2ccc(O)cc2)NC(=O)[C@H](CCCNC(N)=O)NC(=O)[C@H](CCCNC(N)=O)NC(=O)[C@@H](NC(=O)CCC(C)C)CSSC[C@@H](C(N)=O)NC(=O)[C@H](CC(C)C)NC1=O` [UPAR-445, iHex-[Cys-Cit-Cit-Tyr-Phe-Pro-ala-Ile-Leu-Cys]-NH2] ({Pentanoyl(4-Me)}-C[Cit][Cit]YFP[dA]ILC-NH2; disulfide 1-10) gave an IC50 of at most 10 nM. Moreover, on human uPAR (uPAR-Fc), the Kd is under 1.58 nM.

Regarding `CC[C@H](C)[C@@H]1NC(=O)[C@@H]2CCN2C(=O)[C@@H]2CCCN2C(=O)[C@H](Cc2ccccc2)NC(=O)[C@H](Cc2ccc(O)cc2)NC(=O)[C@H](CCC(N)=O)NC(=O)[C@H](CCCNC(N)=O)NC(=O)[C@@H](NC(=O)CCC(C)C)CSSC[C@@H](C(N)=O)NC(=O)[C@H](CC(C)C)NC1=O` [UPAR-446, iHex-[Cys-Cit-Gln-Tyr-Phe-Pro-Aze-Ile-Leu-Cys]-NH2] ({Pentanoyl(4-Me)}-C[Cit]QYFP[Aze]ILC-NH2; disulfide 1-10), the IC50 in assay [1] was at most 10 nM. Besides, the Kd at human uPAR (uPAR-Fc) is under 1.58 nM.

Regarding `CCCCC(=O)N[C@H]1CSSC[C@@H](C(N)=O)NC(=O)[C@H](CCC)NC(=O)[C@H](Cc2ccccc2)NC(=O)[C@@H]2C[C@@H](O)CN2C(=O)[C@@H]2CCCN2C(=O)[C@H](Cc2ccccc2)NC(=O)[C@H](Cc2ccc(O)cc2)NC(=O)[C@H](CCC(N)=O)NC(=O)[C@H](CCCNC(=N)N)NC1=O` [UPAR-447, Pent-[Cys-Arg-Gln-Tyr-Phe-Pro-Hyp-Phe-Nva-Cys]-NH2] (Pentanoyl-CRQYFP[Hyp]F[Nva]C-NH2; disulfide 1-10), the half-inhibitory concentration (IC50) in assay [1] was at most 10 nM. Also, the Kd on human uPAR (uPAR-Fc) is under 1.58 nM.

`CCCCC(=O)N[C@H]1CSSC[C@@H](C(N)=O)NC(=O)[C@H](CCC)NC(=O)[C@H]([C@@H](C)CC)NC(=O)[C@@H]2C[C@@H](O)CN2C(=O)[C@@H]2CCCN2C(=O)[C@H](Cc2ccccc2)NC(=O)[C@H](Cc2ccc(O)cc2)NC(=O)[C@H](CCCCN)NC(=O)[C@H](CCCNC(=N)N)NC1=O` [UPAR-448, Pent-[Cys-Arg-Lys-Tyr-Phe-Pro-Hyp-Ile-Nva-Cys]-NHz] (Pentanoyl-CRKYFP[Hyp]I[Nva]C-NH2; disulfide 1-10): the IC50 in assay [1] is at most 10 nM. The Kd at human uPAR (uPAR-Fc) is under 1.58 nM.

`CC[C@H](C)[C@@H]1NC(=O)[C@@H](C)NC(=O)[C@@H]2CCCN2C(=O)[C@H](Cc2ccccc2)NC(=O)[C@H](Cc2ccc(O)cc2)NC(=O)[C@H](CCC(N)=O)NC(=O)[C@H](CCCNC(=N)N)NC(=O)[C@@H](NC(=O)CCC(C)C)CSSC[C@@H](C(=O)NCCOCCOCC(=O)N[C@@H](CCCCNC(=O)CN2CCN(CC(=O)O)CCN(CC(=O)O)CCN(CC(=O)O)CC2)C(N)=O)NC(=O)[C@H](CC(C)C)NC1=O` [UPAR-449, iHex-[Cys-Arg-Gln-Tyr-Phe-Pro-ala-Ile-Leu-Cys]-O2Oc-Lys(DOTA)-NH2] ({Pentanoyl(4-Me)}-CRQYFP[dA]ILC[AEEA]K(DOTA)-NH2; disulfide 1-10) gave an IC50 in assay [1] of at least 126 nM. In addition, on human uPAR (uPAR-Fc), the Kd was 1.58 to 10 nM.

In assay [1], `CCCCC(=O)N[C@H]1CSSC[C@@H](C(N)=O)NC(=O)[C@H](CCC)NC(=O)[C@H]([C@@H](C)CC)NC(=O)[C@@H]2C[C@@H](O)CN2C(=O)[C@@H]2CCCN2C(=O)[C@H](Cc2ccccc2Cl)NC(=O)[C@H](Cc2ccc(O)cc2)NC(=O)[C@H](CCCCNC(=O)CN2CCN(CC(=O)O)CCN(CC(=O)O)CCN(CC(=O)O)CC2)NC(=O)[C@H](CCCNC(N)=O)NC1=O` [UPAR-450, Pent-[Cys-Cit-Lys(DOTA)-Tyr-Ocf-Pro-Hyp-Ile-Nva-Cys]-NH2] (Pentanoyl-C[Cit]K(DOTA)Y[Phe(2-Cl)]P[Hyp]I[Nva]C-NH2; disulfide 1-10) showed an IC50 of at most 10 nM. In addition, at human uPAR (uPAR-Fc), the Kd was under 1.58 nM.

As to `CC[C@@H]1NC(=O)[C@H]([C@@H](C)CC)NC(=O)[C@@H](C)NC(=O)[C@@H]2CCCN2C(=O)[C@H](Cc2ccccc2)NC(=O)[C@H](Cc2ccc(O)cc2)NC(=O)[C@H](CCC(N)=O)NC(=O)[C@H](CCCNC(N)=O)NC(=O)[C@@H](NC(=O)CCC(C)C)CSSC[C@@H](C(N)=O)NC1=O` [UPAR-451, iHex-[Cys-Cit-Gln-Tyr-Phe-Pro-ala-Ile-Abu-Cys]-NH2] ({Pentanoyl(4-Me)}-C[Cit]QYFP[dA]I[Abu]C-NH2; disulfide 1-10), in assay [1], the IC50 is at most 10 nM. Further, on human uPAR (uPAR-Fc), the Kd was 1.58 to 10 nM.

On to `CC[C@H](C)[C@@H]1NC(=O)C(C)(C)NC(=O)[C@@H]2CCCN2C(=O)[C@H](Cc2ccccc2)NC(=O)[C@H](Cc2ccc(O)cc2)NC(=O)[C@H](CCCCNC(=O)CN2CCN(CC(=O)O)CCN(CC(=O)O)CCN(CC(=O)O)CC2)NC(=O)[C@H](CCCNC(N)=O)NC(=O)[C@@H](NC(=O)CCC(C)C)CSSC[C@@H](C(N)=O)NC(=O)[C@H](CC(C)C)NC1=O` [UPAR-452, iHex-[Cys-Cit-Lys(DOTA)-Tyr-Phe-Pro-Aib-Ile-Leu-Cys]-NH2] ({Pentanoyl(4-Me)}-C[Cit]K(DOTA)YFP[Aib]ILC-NH2; disulfide 1-10), for which the IC50 in assay [1] is at most 10 nM. For the same compound, the Kd on human uPAR (uPAR-Fc) was under 1.58 nM.

For `CC(C)CCC(=O)N[C@H]1CSSC[C@@H](C(N)=O)NC(=O)[C@H](CC(C)C)NC(=O)[C@H](C2CCC2)NC(=O)[C@@H](C)NC(=O)[C@@H]2CCCN2C(=O)[C@H](Cc2ccccc2)NC(=O)[C@H](Cc2ccc(O)cc2)NC(=O)[C@H](CCC(N)=O)NC(=O)[C@H](CCCNC(N)=O)NC1=O` [UPAR-453, iHex-[Cys-Cit-Gln-Tyr-Phe-Pro-ala-Cbg-Leu-Cys]-NH2] ({Pentanoyl(4-Me)}-C[Cit]QYFP[dA][Gly(cBu)]LC-NH2; disulfide 1-10), the IC50 in assay [1] is at most 10 nM. On human uPAR (uPAR-Fc), the Kd was 1.58 to 10 nM.

The term IC50 denotes the point on the concentration scale where inhibition reaches its midpoint. Read a low IC50 as greater potency.
